Test results: PMC6541917 (Journal of medicinal chemistry, 2018)

Assays:
HIV-1NL4–3 [1] = experiment: antiviral p24 Gag assay in MT-4 cells, wild-type virus; type: cell-based; conditions: Human immunodeficiency virus 1, MT4, read-out: mean IC50 ± SD
MT-4 cells = conditions: ratio of CC50 to IC50
in vitro = conditions: human
HIV-1NL4–3 [2] = experiment: antiviral assay in MT-4 human T-lymphocytes exposed to HIV-1NL4–3; type: cell-based; conditions: Human immunodeficiency virus 1, MT4, in Homo sapiens, read-out: antiviral IC50
HIV-1ATV^R5μM = type: cell-based; conditions: HIV-1ATV^R5μM compared to wild-type HIV-1NL4–3
HIV-1APV^R5 μM = type: cell-based; conditions: HIV-1APV^R5 μM compared to wild-type HIV-1NL4–3
HIV-1LPV^R5μM = type: cell-based; conditions: HIV-1LPV^R5μM compared to wild-type HIV-1NL4–3
[3] = system: multidrug-resistant HIV-1 variants; experiment: microbe, parasite or virus in culture; type: cell-based; conditions: Human immunodeficiency virus 1, read-out: antiviral IC50, range over variants

Compound: CC(C)CN(C[C@@H](O)[C@H](Cc1ccccc1)NC(=O)O[C@H]1CO[C@H]2OCC[C@H]21)S(=O)(=O)c1ccc(N)cc1 [DRV, darunavir, reference compound]
- IC50 (HIV-1NL4–3 [1]): 3.5 ± 0.09 nM

Compound: COc1ccc(S(=O)(=O)N(CC(C)C)C[C@@H](O)[C@H](Cc2ccccc2)NC(=O)O[C@@H]2C[C@@H]3NC(=O)O[C@@H]3C2)cc1 [Inhibitor 4a, (3aS,5R,6aR)-2-Oxohexahydro-2H-cyclopenta[d]oxazol-5-yl ((2S,3R)-3-Hydroxy-4-((N-isobutyl-4-methoxyphenyl)-sulfonamido)-1-phenylbutan-2-yl)carbamate]
- selectivity index (MT-4 cells): >2070

Compound: COc1ccc(S(=O)(=O)N(CC(C)C)C[C@@H](O)[C@H](Cc2ccccc2)NC(=O)O[C@H]2C[C@H]3OC(=O)N(C)[C@H]3C2)cc1 [Inhibitor 4c, (3aS,5R,6aR)-3-Methyl-2-oxohexahydro-2H-cyclopenta[d]-oxazol-5-yl ((2S,3R)-3-Hydroxy-4-((N-isobutyl-4-methoxyphenyl)sulfonamido)-1-phenylbutan-2-yl)carbamate]
- selectivity index (MT-4 cells): >2778
- CC50 (in vitro): > 100000 nM

Compound: COc1ccc(S(=O)(=O)N(CC(C)C)C[C@@H](O)[C@H](Cc2ccccc2)NC(=O)O[C@@H]2C[C@@H]3OC(=O)N(C)[C@@H]3C2)cc1 [Inhibitor 4d, (3aR,5S,6aS)-3-Methyl-2-oxohexahydro-2H-cyclopenta[d]-oxazol-5-yl ((2S,3R)-3-Hydroxy-4-((N-isobutyl-4-methoxyphenyl)sulfonamido)-1-phenylbutan-2-yl)carbamate]
- selectivity index (MT-4 cells): >229

Compound: C=C(C)CN1C(=O)O[C@@H]2C[C@H](OC(=O)N[C@@H](Cc3ccccc3)[C@H](O)CN(CC(C)C)S(=O)(=O)c3ccc(OC)cc3)C[C@@H]21 [Inhibitor 4k, (3aS,5R,6aR)-3-(2-Methylallyl)-2-oxohexahydro-2H-cyclopenta[d]oxazol-5-yl ((2S,3R)-3-Hydroxy-4-((N-isobutyl-4-methoxyphenyl)sulfonamido)-1-phenylbutan-2-yl)carbamate]
- IC50 (HIV-1NL4–3 [2]): 31 nM
- IC50 (HIV-1NL4–3 [1]): 23 ± 0.1 nM
- IC50 fold-change (in parentheses) (HIV-1ATV^R5μM): 1
- IC50 fold-change (in parentheses) (HIV-1APV^R5 μM): 11
- selectivity index (MT-4 cells): >3226

Compound: COc1ccc(S(=O)(=O)N(CC(C)C)C[C@@H](O)[C@H](Cc2ccccc2)NC(=O)O[C@H]2C[C@H]3OC(=O)N(CC(C)C)[C@H]3C2)cc1 [Inhibitor 4l, (3aS,5R,6aR)-3-Isobutyl-2-oxohexahydro-2H-cyclopenta[d]-oxazol-5-yl ((2S,3R)-3-Hydroxy-4-((N-isobutyl-4-methoxyphenyl)sulfonamido)-1-phenylbutan-2-yl)carbamate]
- IC50 fold-change (in parentheses) (HIV-1ATV^R5μM): 1
- IC50 fold-change (in parentheses) (HIV-1LPV^R5μM): 15
- IC50 fold-change (in parentheses) (HIV-1APV^R5 μM): 7
- IC50 [3]: 33 to 615 nM
- selectivity index (MT-4 cells): >2439
